{
  "source": "patent US20120035177A1",
  "about": "“TABLET FORMULATION FOR P38 INHIBITOR AND METHOD” (Bristol-Myers Squibb Company, priority 2009, published 2012)",
  "experiment": "Physical stability upon storage",
  "type": "physicochemical",
  "conditions": "drug substance; room temperature without need for refrigeration",
  "data": [
    {"smiles": "CCCNC(=O)c1cn2c(c1C)C(Nc1cc(C(=O)NC3CC3)ccc1C)=NCN2.Cl", "note": "[p38 inhibitor]", "values": [
      {"measurement": "physical stability upon storage", "value": "good physical stability"}
    ]}
  ]
}
